Structures are written as SMILES. Structures can show the parent of a compound that is named as a salt. Where two headings read alike, the source gives them in different places.

For this assay, the target named is T1, 5-HT1A serotonin receptor (Rattus norvegicus, UniProt P19327).
T1 sequence (P19327 1-422): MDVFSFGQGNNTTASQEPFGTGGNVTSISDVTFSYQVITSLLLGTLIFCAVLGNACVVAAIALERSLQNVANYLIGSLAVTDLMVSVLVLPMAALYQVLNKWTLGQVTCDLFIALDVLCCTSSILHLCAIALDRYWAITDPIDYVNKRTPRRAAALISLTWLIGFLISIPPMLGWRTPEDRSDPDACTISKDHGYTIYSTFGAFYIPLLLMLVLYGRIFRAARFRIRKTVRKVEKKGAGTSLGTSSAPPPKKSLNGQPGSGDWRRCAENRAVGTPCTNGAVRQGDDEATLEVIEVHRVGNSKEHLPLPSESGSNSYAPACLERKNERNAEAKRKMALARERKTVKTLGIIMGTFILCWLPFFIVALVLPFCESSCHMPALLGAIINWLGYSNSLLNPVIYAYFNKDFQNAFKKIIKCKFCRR
Nature of the assay: biochemical. The assay is classed as binding.

The mark [1] stands for this setting: displacement of [^3 H]8-OHDPAT, read-out: 5-HT1A Binding (IC50).

Take `COc1ccsc1C1(O)CCN(CCC(C(=O)N2CCCCCC2)c2ccccc2)CC1` (stereo not drawn) [Example 1, 1-Azepan-1-yl-4-[4-hydroxy-4-(3-methoxy-thiophen-2-yl)-piperidin-1-yl]-2-phenyl-butan-1-one 0.75 hydroiodide]: the midpoint of inhibition, the IC50, lay at 0.8 nM.

As for `COc1ccsc1C1=CCN(CCC(C(=O)N2CCCCCC2)c2ccccc2)CC1` (stereo not drawn) [Example 2, 1-Azepan-1-yl-4-[4-(3-methoxy-thiophen-2-yl)-1,2,3,6-tetrahydro-pyridin-1-yl]-2-phenyl-butan-1-one], inhibition was half-maximal at 0.25 nM (IC50).

Consider `COc1ccsc1C1CCN(CCC(C(=O)N2CCCCCC2)c2ccccc2)CC1` (stereo not drawn) [Example 3, 1-Azepan-1-yl-4-[4-(3-methoxy-thiophen-2-yl)-piperidin-1-yl]-2-phenyl-butan-1-one fumarate salt], for which the IC50 (as a rule, the point on the concentration scale where inhibition reaches its midpoint) under setting [1] was found to be 0.98 nM.

Compound `COc1ccsc1C1=CCN(CC[C@H](C(=O)N2CCCCCC2)c2ccccc2)CC1` [Example 4, (S)-1-Azepan-1-yl-4-[4-(3-methoxy-thiophen-2-yl)-1.2.3.6-tetrahydro-pyridin-1-yl]-2-phenyl-butan-1-one hydrochloride salt] displayed an IC50 of 0.2 nM.

With `COc1ccsc1C1CCN(CC[C@H](C(=O)N2CCCCCC2)c2ccccc2)CC1` [Example 5, (2S)-1-(Azepan-1-yl)-4-[4-(3-methoxy-thiophen-2-yl)-piperidin-1-yl]-2-phenyl-butan-1-one dihydrochloride salt], the IC50 under setting [1] is 0.7 nM.

Consider `O=C1CC2(CCCC2)CC(=O)N1CCCCN1CCN(c2ncccn2)CC1` [buspirone, reference compound], for which the “affinity for the serotonin 5-HT1A receptor (in words)” value (displacement of [^3 H]8-OHDPAT) is reported as “potent affinity”.

The record behind these values is US5525600A, “(Thiophen-2-yl)-piperidin or tetrahydropyridin carboxamides” (American Home Products Corporation, priority 1994, dated 1996).
